Measurements from patent US10710986B2, “PD-1/PD-L1 inhibitors” (Gilead Sciences, Inc., priority 2018, dated 2020).

Biological target: PD-1/PD-L1 (Homo sapiens (Human), UniProt Q9NZQ7)
Test: PD-1/PD-L1 biochemical protein-protein interaction assay (ALPHA)
Settings: 0.3 nM His tagged PD-L1, 2.5 nM biotinylated Fc-PD-1, 60 minutes at 25° C., read-out: IC50 PD-L1-PD1

Chain of PD-1/PD-L1 (Q9NZQ7 19-238): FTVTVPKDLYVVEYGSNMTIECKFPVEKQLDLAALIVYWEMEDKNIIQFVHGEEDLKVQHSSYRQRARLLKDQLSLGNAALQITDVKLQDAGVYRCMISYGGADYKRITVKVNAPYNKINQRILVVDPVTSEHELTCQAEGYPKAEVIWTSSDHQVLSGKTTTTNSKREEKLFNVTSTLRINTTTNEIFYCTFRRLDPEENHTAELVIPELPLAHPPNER

Row | SMILES | IC50 [nM]
1 | COc1nc(-c2cccc(-c3cccc(-c4cnc(CN[C@@H]5CCC5C)c(OC)n4)c3Cl)c2Cl)cnc1CNC[C@@H]1CCC(=O)N1 (stereo partly shown) [compound 469] | 0.26
2 | COc1nc(-c2cccc(-c3cccc(-c4cnc(CN5C6COCC5C6)c(OC)n4)c3Cl)c2Cl)cnc1CN1C2COCC1C2 [compound 474] | 0.219
3 | COc1nc(-c2cccc(-c3cccc(-c4cnc(CNC[C@H]5CNC(=O)C5)c(OC)n4)c3Cl)c2Cl)cnc1CNC[C@H]1CNC(=O)C1 [compound 475] | 0.162
4 | COc1nc(-c2cccc(-c3cccc(-c4cnc(CNC[C@H]5CCC[C@@H]5O)c(OC)n4)c3Cl)c2Cl)cnc1CNC[C@H]1CCC[C@@H]1O [compound 476] | 0.622
5 | COc1nc(-c2cccc(-c3cccc(-c4cnc(CN5CC6CC5(CO)C6)c(OC)n4)c3Cl)c2Cl)cnc1CN1CC2CC1(CO)C2 [compound 477] | 0.246
6 | COc1nc(-c2cccc(-c3cccc(-c4cnc(CNC[C@@H]5CCC(=O)N5)c(OC)n4)c3Cl)c2Cl)cnc1CNC[C@H]1CNC(=O)C1 [compound 481] | 0.227
7 | COc1nc(-c2cccc(-c3cccc(-c4cnc(CN5CCCC5C(C)(C)O)c(OC)n4)c3Cl)c2Cl)cnc1CNC[C@@H]1CCC(=O)N1 (stereo partly shown) [compound 483] | 0.341
8 | COc1nc(-c2cccc(-c3cccc(-c4cnc(CN5CC(C(C)(C)O)C5)c(OC)n4)c3Cl)c2Cl)cnc1CNC[C@@H]1CCC(=O)N1 [compound 484] | 0.122
9 | COc1nc(-c2cccc(-c3cccc(-c4cnc(CN5C6COCC5C6)c(OC)n4)c3Cl)c2Cl)cnc1CNC[C@@H]1CCC(=O)N1 [compound 485] | 0.229
10 | COc1nc(-c2cccc(-c3cccc(-c4cnc(CNCC5(O)CCC5)c(OC)n4)c3Cl)c2Cl)cnc1CNC[C@@H]1CCC(=O)N1 [compound 486] | 0.29
11 | COc1nc(-c2cccc(-c3cccc(-c4cnc(CN5C[C@H](C)[C@@H](O)C5)c(OC)n4)c3Cl)c2Cl)cnc1CNC[C@@H]1CCC(=O)N1 [compound 487] | 0.123
12 | COc1nc(-c2cccc(-c3cccc(-c4cnc5c(CN6CC7(C6)CN(C(C)=O)C7)nn(C)c5n4)c3Cl)c2Cl)cnc1CN1CC2(C1)CN(C(C)=O)C2 [compound 489] | 0.332
13 | CCn1nc(CN2CC3(C2)CN(C(C)=O)C3)c2ncc(-c3cccc(-c4cccc(-c5cnc(CN6CC7(C6)CN(C(C)=O)C7)c(OC)n5)c4Cl)c3Cl)nc21 [compound 490] | 0.565

More lines, now with the values ahead:

Row | IC50 [nM] | SMILES
14 | 0.094 | COc1nc(-c2cccc(-c3cccc(-c4cnc(CNC5CCN(C(N)=O)CC5)c(OC)n4)c3Cl)c2Cl)cnc1CNC[C@@H]1CCC(=O)N1 [compound 470]
15 | 0.119 | COc1nc(-c2cccc(-c3cccc(-c4cnc(CNC[C@@H]5CCC(=O)N5)c(OC)n4)c3Cl)c2Cl)cnc1CNCC1CCN(C(N)=O)C1 (stereo partly shown) [compound 471]
16 | 0.066 | CNC(=O)C1CCN(Cc2ncc(-c3cccc(-c4cccc(-c5cnc(CNC[C@@H]6CCC(=O)N6)c(OC)n5)c4Cl)c3Cl)nc2OC)C1 (stereo partly shown) [compound 472]
17 | 0.093 | COc1nc(-c2cccc(-c3cccc(-c4cnc(CN[C@@H]5CCC(C(N)=O)C5)c(OC)n4)c3Cl)c2Cl)cnc1CNC[C@@H]1CCC(=O)N1 (stereo partly shown) [compound 473]
18 | 0.064 | COc1nc(-c2cccc(-c3cccc(-c4cnc(CN5CC(C(C)(C)O)C5)c(OC)n4)c3Cl)c2Cl)cnc1CN1CC(C(C)(C)O)C1 [compound 478]
19 | 0.064 | COc1nc(-c2cccc(-c3cccc(-c4cnc(CNC[C@@H]5CNC(=O)C5)c(OC)n4)c3Cl)c2Cl)cnc1CNC[C@@H]1CNC(=O)C1 [compound 480]
20 | 0.108 | COc1nc(-c2cccc(-c3cccc(-c4cnc(CN5CC[C@]6(O)C[C@@H]6C5)c(OC)n4)c3Cl)c2Cl)cnc1CNC[C@@H]1CCC(=O)N1 [compound 482]
21 | 0.064 | CNc1nc(-c2cccc(-c3cccc(-c4cnc(CNC[C@@H]5CCC(=O)N5)c(OC)n4)c3Cl)c2Cl)cnc1CN1CC2(C1)CN(C(C)=O)C2 [compound 488]
22 | 0.064 | COc1nc(-c2cccc(-c3cccc(-c4ccc5c(CN6CC7(C6)CN(C(C)=O)C7)cn(C)c5n4)c3Cl)c2Cl)cnc1CN1CC2(C1)CN(C(C)=O)C2 [compound 491]
